Values quoted from earlier work as cited in patent US20170014380A1, “Vildagliptin Formulation Process Under Inert Gas Atmosphere” (Sanovell IIac Sanayi Ve Ticaret Anonim Sirketi, priority 2014, published 2017).

- solubility in organic polar solvents (in organic polar solvents): soluble
- solubility in water (in water): soluble
Structure (SMILES): N#C[C@@H]1CCCN1C(=O)CN[C@@]12C[C@@H]3C[C@@H](CC(O)(C3)C1)C2 [Vildagliptin, (S)-{[(3-hydroxyadamantan-1-yl)amino]acetyl}pyrrolidine-2-carbonitril]
